Experimental data as given in article PMC4807864 (The Journal of antibiotics, 2013).
Where a name gives a salt, the structure may show the parent alone.

Target: Sfp (Bacillus subtilis, UniProt P39135)
Experiment: SDS-PAGE fluorescent carrier protein labeling follow-up
Type: biochemical, B. subtilis
Conditions: gel analysis (Figure S22)

Sfp, sequence (P39135 whole entry): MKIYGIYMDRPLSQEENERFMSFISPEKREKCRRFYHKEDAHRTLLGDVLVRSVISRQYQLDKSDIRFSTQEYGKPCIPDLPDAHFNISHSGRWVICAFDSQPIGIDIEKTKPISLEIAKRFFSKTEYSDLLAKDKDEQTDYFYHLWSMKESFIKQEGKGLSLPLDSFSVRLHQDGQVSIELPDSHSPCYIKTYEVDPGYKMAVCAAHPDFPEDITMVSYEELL

SMILES	Effect on fluorescent labeling of the carrier protein substrate by SDS-PAGE
C[n+]1cc2c3c(ccc2c2ccc4cc5c(cc4c21)OCO5)OCO3 [sanguinarine Cl, sanguinarine]	inhibitory behavior
NC(N)=Nc1ccc2[nH]c3c(c2c1)C[C@@]1(O)[C@H]2Cc4ccc(O)c5c4[C@@]1(CCN2CC1CC1)[C@H]3O5.O=C(O)C(F)(F)F.O=C(O)C(F)(F)F [guanidinyl-naltrindole]	increase fluorescent labeling
CC(C)(C)c1ccc(S(=O)(=O)/C=C/C#N)cc1 [Bay 11-7085]	increase fluorescent labeling

Target: T1, human PPTase (hPPTase) (Homo sapiens, UniProt Q9NRN7)
T1 sequence (Q9NRN7 1-309): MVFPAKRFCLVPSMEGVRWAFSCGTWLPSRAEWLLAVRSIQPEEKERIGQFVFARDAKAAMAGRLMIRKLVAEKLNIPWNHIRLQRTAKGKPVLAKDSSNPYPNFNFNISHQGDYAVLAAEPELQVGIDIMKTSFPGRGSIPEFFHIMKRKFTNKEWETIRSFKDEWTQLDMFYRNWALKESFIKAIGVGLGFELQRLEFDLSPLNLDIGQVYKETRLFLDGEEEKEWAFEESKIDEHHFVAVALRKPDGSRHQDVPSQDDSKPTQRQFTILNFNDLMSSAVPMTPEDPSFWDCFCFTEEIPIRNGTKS
Experiment: Fluorescence polarization phosphopantetheinylation assay
Type: biochemical
Conditions: not given

SMILES	IC50
C[n+]1cc2c3c(ccc2c2ccc4cc5c(cc4c21)OCO5)OCO3 [sanguinarine Cl, sanguinarine]	> 100 µM
NC(CO)C(=O)NNCc1ccc(O)c(O)c1O (stereo not drawn) [benserazide HCl, benserazide]	> 100 µM
CC(C)(COP(=O)(O)OP(=O)(O)OC[C@H]1O[C@@H](n2cnc3c(N)ncnc32)[C@H](O)[C@@H]1OP(=O)(O)O)[C@@H](O)C(=O)NCCC(=O)NCCS [coenzyme A]	14 ± 1 µM
